Reference: patent publication US5656603A (Loyola University of Chicago, priority 1995, dated 1997)

Legend:
[1] = target: T1, angiotensin converting enzyme (EC 3.4.15.1) (Bos taurus, UniProt P12820); test: Specificity of apstatin: angiotensin converting enzyme; format: biochemical; details: detergent extract of bovine lung; Hip-His-Leu, pH 6.5, HPLC-1
T1 construct: Unless otherwise indicated, the source of each enzyme activity was a detergent extract of bovine lung; from tissue; host or cells: detergent extract of bovine lung
T1 sequence (P12820 29-1306): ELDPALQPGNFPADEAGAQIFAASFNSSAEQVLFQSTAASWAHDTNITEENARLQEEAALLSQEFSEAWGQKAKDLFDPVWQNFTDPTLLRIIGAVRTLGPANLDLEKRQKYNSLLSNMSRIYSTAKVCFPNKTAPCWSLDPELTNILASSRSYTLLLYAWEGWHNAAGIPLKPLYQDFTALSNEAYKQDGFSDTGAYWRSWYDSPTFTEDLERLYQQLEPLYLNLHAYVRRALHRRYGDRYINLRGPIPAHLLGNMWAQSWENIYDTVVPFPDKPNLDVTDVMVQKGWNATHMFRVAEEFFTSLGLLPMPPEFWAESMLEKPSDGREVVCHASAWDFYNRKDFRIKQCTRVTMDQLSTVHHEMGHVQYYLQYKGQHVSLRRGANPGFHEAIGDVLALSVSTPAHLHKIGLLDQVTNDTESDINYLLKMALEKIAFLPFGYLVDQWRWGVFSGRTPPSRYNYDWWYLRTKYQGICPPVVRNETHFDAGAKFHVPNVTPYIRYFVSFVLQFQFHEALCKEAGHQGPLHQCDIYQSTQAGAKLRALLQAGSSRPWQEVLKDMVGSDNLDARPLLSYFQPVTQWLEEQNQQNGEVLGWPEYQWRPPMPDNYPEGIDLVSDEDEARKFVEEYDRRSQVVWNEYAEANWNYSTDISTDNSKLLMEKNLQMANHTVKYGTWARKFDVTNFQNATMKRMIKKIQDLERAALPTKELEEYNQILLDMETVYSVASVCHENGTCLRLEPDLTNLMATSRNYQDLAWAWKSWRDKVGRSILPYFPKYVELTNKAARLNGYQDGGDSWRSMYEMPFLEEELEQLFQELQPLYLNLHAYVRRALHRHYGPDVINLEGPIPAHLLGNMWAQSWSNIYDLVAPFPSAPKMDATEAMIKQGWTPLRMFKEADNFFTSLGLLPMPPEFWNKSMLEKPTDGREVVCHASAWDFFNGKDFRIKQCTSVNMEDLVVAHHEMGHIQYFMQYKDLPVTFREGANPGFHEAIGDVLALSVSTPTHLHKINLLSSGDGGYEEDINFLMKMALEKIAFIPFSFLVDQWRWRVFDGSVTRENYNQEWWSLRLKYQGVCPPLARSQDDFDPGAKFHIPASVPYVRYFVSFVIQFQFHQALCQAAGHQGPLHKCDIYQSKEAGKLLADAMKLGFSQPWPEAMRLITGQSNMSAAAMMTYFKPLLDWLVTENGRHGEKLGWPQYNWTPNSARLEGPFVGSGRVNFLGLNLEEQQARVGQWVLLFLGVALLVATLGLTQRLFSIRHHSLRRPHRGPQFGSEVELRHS
Experimental: (§1) Specificity of Apstatin--Apstatin was assayed for its ability to inhibit several other peptidases. […] Unless otherwise indicated, the source of each enzyme activity was a detergent extract of bovine lung prepared as described in (12-13). Activities were determined by a modification of the fluorescent assay described above (indicated by "FLUO") or by HPLC separation and quantitation of reaction products using the method described in (12) (method "HPLC-1") or the method described below (method "HPLC-2"). […]

[2] = target: bestatin-sensitive/amastatin-insensitive membrane dipeptidase; test: Specificity of apstatin: bestatin-sensitive/amastatin-insensitive membrane dipeptidase; format: biochemical; details: bovine lung microsomes; Arg-Trp, pH 6.8, FLUO
Experimental: as §1

C[C@H](NC(=O)[C@@H]1CCCN1C(=O)[C@@H]1CCCN1C(=O)[C@@H](O)[C@H](N)Cc1ccccc1)C(N)=O [apstatin, N-[(2S, 3R)-3-amino-2-hydroxy-4-phenylbutanoyl]-L-prolyl-L-prolyl-Lalaninamide]
IC50 [1]: > 800 µM | IC50 [2]: > 800 µM
